Data: US7217702B2, “Selective antagonists of A2A adenosine receptors” (Adenosine Therapeutics, LLC, priority 2004, dated 2007)

Biological target: A2A adenosine receptor (Homo sapiens, UniProt P29274)
Assay: Human Ki of the compound tables
Assay type: binding
Conditions: receptor subtype not given

Sequence of A2A adenosine receptor (P29274 whole entry): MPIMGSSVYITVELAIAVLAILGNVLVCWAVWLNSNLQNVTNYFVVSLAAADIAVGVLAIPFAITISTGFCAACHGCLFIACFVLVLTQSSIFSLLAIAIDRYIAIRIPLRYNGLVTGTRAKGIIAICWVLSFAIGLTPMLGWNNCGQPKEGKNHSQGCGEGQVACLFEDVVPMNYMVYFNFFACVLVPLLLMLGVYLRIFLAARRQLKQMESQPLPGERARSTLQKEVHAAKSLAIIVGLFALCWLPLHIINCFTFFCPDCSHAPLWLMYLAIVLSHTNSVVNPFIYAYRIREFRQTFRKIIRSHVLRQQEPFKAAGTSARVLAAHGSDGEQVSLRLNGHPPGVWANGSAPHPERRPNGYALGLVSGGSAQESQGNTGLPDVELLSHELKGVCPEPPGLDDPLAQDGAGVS

SMILES	Ki [nM]
C#CCn1cnc2c(NCc3ccccn3)nc(C#C[C@]3(O)CCC[C@@H](C)C3)nc21 [Compound 37, 2-{2-[1(S)-Hydroxy-3(R)-methyl-1-cyclohexyl]ethyn-1-yl}-9-(propargyl)-N6-(pyridin-2-ylmethyl)adenine]	< 100
CCCCCCn1cnc2c(N)nc(C#CC3(O)C4CC5CC(C4)CC3C5)nc21 (centres unmarked) [Compound 42, 9-Hexyl-2-{2-[hydroxy-adamantan-2-yl]ethyn-1-yl}adenine]	< 1000
Nc1nc(C#CC2(O)C3CC4CC(C3)CC2C4)nc2c1ncn2CC1CC1 (centres unmarked) [Compound 45, 9-Cyclopropylmethyl-2-{2-[hydroxy-adamantan-2-yl]ethyn-1-yl}adenine]	< 100
C#CCn1cnc2c(N[C@@H](C)CC)nc(C#C[C@]3(O)CCC[C@@H](C)C3)nc21 [Compound 32, N6-[(S)-(+)-sec-Butyl]-2-{2-[1(S)-hydroxy-3(R)-methyl-1-cyclohexyl]ethyn-1-yl}-9-propargyl-adenine]	< 100
CCCn1cnc2c(NC(CC)CC)nc(C#C[C@]3(O)CCC[C@@H](C)C3)nc21 [Compound 12, 2-{2-[1(S)-Hydroxy-3(R)-methyl-1-cyclohexyl]ethyn-1-yl}-N6-(3-pentyl)-9-propyladenine]	< 100
C#CCn1cnc2c(NCc3cccc(OC)c3)nc(C#C[C@]3(O)CCC[C@@H](C)C3)nc21 [Compound 36, 2-{2-[1(S)-Hydroxy-3(R)-methyl-1-cyclohexyl]ethyn-1-yl}-N6-(3-methoxybenzyl)-9-(propargyl)adenine]	< 100
Nc1nc(C#CC2(O)C3CC4CC(C3)CC2C4)nc2c1ncn2CC1CCCC1 (centres unmarked) [Compound 47, 9-Cyclopentylmethyl-2-{2-[hydroxy-adamantan-2-yl]ethyn-1-yl}adenine]	< 500
CC(C)Cn1cnc2c(N)nc(C#CC3(O)C4CC5CC(C4)CC3C5)nc21 (centres unmarked) [Compound 44, 2-{2-[Hydroxy-adamantan-2-yl]ethyn-1-yl}-9-isobutyl-adenine]	< 500
CCOC(=O)Cn1cnc2c(NC(CC)CC)nc(C#C[C@]3(O)CCC[C@@H](C)C3)nc21 [Compound 25, 9-(Acetic acid ethyl ester)-2-{2-[1(S)-hydroxy-3(R)-methyl-1-cyclohexyl]ethyn-1-yl}-N6-(3-pentyl)adenine]	< 500
Nc1nc(C#CC2(O)C3CC4CC(C3)CC2C4)nc2c1ncn2CCCO (centres unmarked) [Compound 53]	< 500
CCC(CC)Nc1nc(C#C[C@]2(O)CCC[C@@H](C)C2)nc2c1ncn2CC1OCCO1 [Compound 22, 9-([1,3]-Dioxolan-2-ylmethyl)-2-{2-[1(S)-hydroxy-3(R)-methyl-1-cyclohexyl]ethyn-1-yl}-N6-(3-pentyl)adenine]	< 500
CCC(CC)Nc1nc(C#C[C@]2(O)CCC[C@@H](C)C2)nc2c1ncn2CC(C)C [Compound 13, 9-Isobutyl-2-{2-[1(S)-hydroxy-3(R)-methyl-1-cyclohexyl]ethyn-1-yl}-N6-(3-pentyl)adenine]	< 500
CCCn1cnc2c(N)nc(C#CC3(O)C4CC5CC(C4)CC3C5)nc21 (centres unmarked) [Compound 41, 2-{2-[Hydroxy-adamantan-2-yl]ethyn-1-yl}-9-propyladenine]	< 100
CCC(CC)Nc1nc(C#C[C@]2(O)CCC[C@@H](C)C2)nc2c1ncn2Cc1c(C)noc1C [Compound 30, 9-(3,5-Dimethyl-isoxazol-4-ylmethyl)-2-{2-[1(S)-hydroxy-3(R)-methyl-1-cyclohexyl]ethyn-1-yl}-N6-(3-pentyl)adenine]	< 100
CCC(CC)Nc1nc(C#C[C@]2(O)CCC[C@@H](C)C2)nc2c1ncn2Cc1ccccc1 [Compound 27, 9-Benzyl-2-{2-[1(S)-hydroxy-3(R)-methyl-1-cyclohexyl]ethyn-1-yl}-N6-(3-pentyl)adenine]	< 100
CC[C@H](C)Nc1nc(C#C[C@]2(O)CCC[C@@H](C)C2)nc2c1ncn2Cc1c(C)noc1C [Compound 33, N6-[(s)-(+)-sec-Butyl]-9-(3,5-dimethyl-isoxazol-4-ylmethyl)-2-{2-[1(S)-hydroxy-3(R)-methyl-1-cyclohexyl]ethyn-1-yl}adenine]	< 100
C[C@@H]1CCC[C@@](O)(C#Cc2nc(NCC(c3ccccc3)c3ccccc3)c3ncn(C)c3n2)C1 [Compound 34, N6-(2-Diphenylethyl)-2-{2-[1(S)-hydroxy-3(R)-methyl-1-cyclohexyl]ethyn-1-yl}-9-methyladenine]	< 500
C#CCCn1cnc2c(N)nc(C#CC3(O)C4CC5CC(C4)CC3C5)nc21 (centres unmarked) [Compound 62, 9-(But-3-ynyl)-2-{2-[hydroxy-adamantan-2-yl]ethyn-1-yl}adenine]	< 100
C#CCn1cnc2c(N)nc(C#CCC3CCN(C(=O)OC)CC3)nc21 [Compound 63, 2-{3-[1-(Methoxycarbanoyl)piperidin-4-yl]propyn-1-yl}-9-propargyladenine]	< 100

SMILES	Ki [nM]
C=CCn1cnc2c(NC(CC)CC)nc(C#C[C@]3(O)CCC[C@@H](C)C3)nc21 [Compound 16, 9-Allyl-2-{2-[1(S)-hydroxy-3(R)-methyl-1-cyclohexyl]ethyn-1-yl}-N6-(3-pentyl)adenine]	< 100
CCC(CC)Nc1nc(C#C[C@]2(O)CCC[C@@H](C)C2)nc2c1ncn2CCO [Compound 19, 9-(2-Hydroxyethyl)-2-{2-[1(S)-hydroxy-3(R)-methyl-1-cyclohexyl]ethyn-1-yl}-N6-(3-pentyl)adenine]	< 100
C#CCCCn1cnc2c(NC(CC)CC)nc(C#C[C@]3(O)CCC[C@@H](C)C3)nc21 [Compound 18, 2-{2-[1(S)-Hydroxy-3(R)-methyl-1-cyclohexyl]ethyn-1-yl}-N6-(3-pentyl)-9-(pent-4-yne)adenine]	< 100
Cc1noc(C)c1Cn1cnc2c(N)nc(C#C[C@]3(O)CCC[C@@H](C)C3)nc21 [Compound 8, 9-(3,5-Dimethyl-isoxazol-4-ylmethyl)-2-{2-[1(S)-hydroxy-3(R)-methyl-1-cyclohexyl]ethyn-1-yl}adenine]	< 100
C#CCn1cnc2c(N[C@@H](C)c3cccc4ccccc34)nc(C#C[C@]3(O)CCC[C@@H](C)C3)nc21 [Compound 35, 2-{2-[1(S)-Hydroxy-3(R)-methyl-1-cyclohexyl]ethyn-1-yl}-N6-[(s)-(−)-alpha-napthalen-1-yl-ethyl]-9-(propargyl)adenine]	< 500
Cn1cnc2c(N)nc(C#CC3(O)C4CC5CC(C4)CC3C5)nc21 (centres unmarked) [Compound 39, 2-{2-[Hydroxy-adamantan-2-yl]ethyn-1-yl}-9-methyladenine]	< 100
C#CCn1cnc2c(N)nc(C#CC3(O)CC4CCC3C4)nc21 (single isomer, unassigned) [Compound 60, 2-{2-[Hydroxy-norbornan-2-yl]ethyn-1-yl}-9-propargyladenine]	< 100
CCC(CC)Nc1nc(C#C[C@]2(O)CCC[C@@H](C)C2)nc2c1ncn2CC1CC1 [Compound 14, 9-Cyclopropylmethyl-2-{2-[1(S)-hydroxy-3(R)-methyl-1-cyclohexyl]ethyn-1-yl}-N6-(3-pentyl)adenine]	< 100
CCn1cnc2c(N)nc(C#CC3(O)C4CC5CC(C4)CC3C5)nc21 (centres unmarked) [Compound 40, 9-Ethyl-2-{2-[hydroxy-adamantan-2-yl]ethyn-1-yl}adenine]	< 100
Nc1nc(C#CC2(O)C3CC4CC(C3)CC2C4)nc2c1ncn2CC1CCC1 (centres unmarked) [Compound 46, 9-Cyclobutylmethyl-2-{2-[hydroxy-adamantan-2-yl]ethyn-1-yl}adenine]	< 100
CCC(CC)Nc1nc(C#C[C@]2(O)CCC[C@@H](C)C2)nc2c1ncn2C1CCCC1 [Compound 15, 9-Cyclopentyl-2-{2-[1(S)-hydroxy-3(R)-methyl-1-cyclohexyl]ethyn-1-yl}-N6-(3-pentyl)adenine]	< 100
Nc1nc(C#CC2(O)C3CC4CC(C3)CC2C4)nc2c1ncn2CCO (centres unmarked) [Compound 52, 2-{2-[Hydroxy-adamantan-2-yl]ethyn-1-yl}-9-(2-hydroxyethyl)adenine]	< 500
C#CCn1cnc2c(N)nc(C#CC3(O)CC4CCC3C4)nc21 (single isomer, unassigned) [Compound 61, 2-{2-[Hydroxy-norbornan-2-yl]ethyn-1-yl}-9-propargyladenine]	< 100
Nc1nc(C#CC2(O)C3CC4CC(C3)CC2C4)nc2c1ncn2C1CCC1 (centres unmarked) [Compound 49, 9-Cyclobutyl-2-{2-[hydroxy-adamantan-2-yl]ethyn-1-yl}adenine]	< 100
C[C@@H]1CCC[C@@](O)(C#Cc2nc(N)c3ncn(CC4CC4)c3n2)C1 [Compound 1, 9-Cyclopropylmethyl-2-{2-[1(S)-hydroxy-3(R)-methyl-1-cyclohexyl]ethyn-1-yl}adenine]	< 100
CCC(CC)Nc1nc(C#C[C@]2(O)CCC[C@@H](C)C2)nc2c1ncn2CCCO [Compound 20, 2-{2-[1(S)-Hydroxy-3(R)-methyl-1-cyclohexyl]ethyn-1-yl}-9-(3-hydroxypropyl)-N6-(3-pentyl)adenine]	< 500
C[C@@H]1CCC[C@@](O)(C#Cc2nc(N)c3ncn(CC#Cc4cccs4)c3n2)C1 [Compound 10]	< 500
CCC(CC)Nc1nc(C#C[C@]2(O)CCC[C@@H](C)C2)nc2c1ncn2Cc1cccnc1 [Compound 28, 2-{2-[1(S)-Hydroxy-3(R)-methyl-1-cyclohexyl]ethyn-1-yl}-N6-(3-pentyl)-9-(pyridin-3-ylmethyl)adenine]	< 100
C[C@@H]1CCC[C@@](O)(C#Cc2nc(N)c3ncn(CC#N)c3n2)C1 [Compound 4, 9-Acetonitrile-2-{2-[1(S)-hydroxy-3(R)-methyl-1-cyclohexyl]ethyn-1-yl}adenine]	< 100
